According to ChEMBL document CHEMBL1137550, “New potent acetylcholinesterase inhibitors in the tetracyclic triterpene series” (J Med Chem, 2007):

What was measured:
Acetylcholinesterase [1] = target: Acetylcholinesterase (Homo sapiens, UniProt P22303)
Description: Inhibition of human recombinant AChE by Ellman's method

Acetylcholinesterase [2] = target: T1, Acetylcholinesterase (Bos taurus, UniProt P23795); assay: Inhibition of bovine erythrocytes AChE by Ellman's method
T1 sequence (P23795 whole entry): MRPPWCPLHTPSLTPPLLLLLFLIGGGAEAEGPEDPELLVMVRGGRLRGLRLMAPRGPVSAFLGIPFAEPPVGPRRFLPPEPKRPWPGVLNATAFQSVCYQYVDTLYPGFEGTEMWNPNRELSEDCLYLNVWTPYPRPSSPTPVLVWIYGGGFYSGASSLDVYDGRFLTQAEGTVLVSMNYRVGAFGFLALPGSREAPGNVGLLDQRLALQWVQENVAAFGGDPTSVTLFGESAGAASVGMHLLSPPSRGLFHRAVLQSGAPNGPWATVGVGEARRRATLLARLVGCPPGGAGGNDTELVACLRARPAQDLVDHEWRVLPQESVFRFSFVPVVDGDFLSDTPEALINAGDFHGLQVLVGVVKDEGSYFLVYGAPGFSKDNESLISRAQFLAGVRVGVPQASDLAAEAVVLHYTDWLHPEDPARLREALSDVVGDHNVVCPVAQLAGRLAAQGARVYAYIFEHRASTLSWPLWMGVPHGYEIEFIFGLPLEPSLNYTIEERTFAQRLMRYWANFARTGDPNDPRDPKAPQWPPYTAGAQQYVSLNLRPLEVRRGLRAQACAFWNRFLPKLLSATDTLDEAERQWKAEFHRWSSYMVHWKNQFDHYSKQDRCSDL

Acetylcholinesterase [3] = target: Acetylcholinesterase (Torpedo californica, UniProt P04058)
Description: Inhibition of Torpedo californica AChE by Ellman's method

Cholinesterase = Cholinesterase (Homo sapiens, UniProt P06276)
Description: Inhibition of human serum BuChE by Ellman's method

Acetylcholinesterase [4] = target: Acetylcholinesterase (Electrophorus electricus, UniProt O42275)
Sequence of Acetylcholinesterase (Electrophorus electricus, UniProt O42275) (O42275 whole entry): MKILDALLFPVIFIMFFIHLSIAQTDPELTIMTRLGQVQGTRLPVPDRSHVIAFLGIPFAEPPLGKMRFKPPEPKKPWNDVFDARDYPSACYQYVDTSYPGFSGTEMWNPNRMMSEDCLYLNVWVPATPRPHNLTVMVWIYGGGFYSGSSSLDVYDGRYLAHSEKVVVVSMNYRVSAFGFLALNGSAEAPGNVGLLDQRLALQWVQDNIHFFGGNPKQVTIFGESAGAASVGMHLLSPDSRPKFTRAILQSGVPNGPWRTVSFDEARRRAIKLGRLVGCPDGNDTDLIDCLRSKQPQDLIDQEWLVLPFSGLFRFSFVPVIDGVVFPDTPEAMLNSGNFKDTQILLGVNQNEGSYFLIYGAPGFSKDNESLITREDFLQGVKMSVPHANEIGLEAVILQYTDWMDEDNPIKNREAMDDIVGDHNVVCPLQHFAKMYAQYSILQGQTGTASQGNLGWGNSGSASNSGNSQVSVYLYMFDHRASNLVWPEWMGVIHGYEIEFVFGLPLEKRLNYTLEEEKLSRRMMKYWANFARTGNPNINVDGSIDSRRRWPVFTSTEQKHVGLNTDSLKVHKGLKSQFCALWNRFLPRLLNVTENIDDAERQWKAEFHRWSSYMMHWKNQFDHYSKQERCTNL
Description: Inhibition of Electrophorus electricus AChE by Ellman's method

Sequence of Acetylcholinesterase (Homo sapiens, UniProt P22303) (P22303 whole entry): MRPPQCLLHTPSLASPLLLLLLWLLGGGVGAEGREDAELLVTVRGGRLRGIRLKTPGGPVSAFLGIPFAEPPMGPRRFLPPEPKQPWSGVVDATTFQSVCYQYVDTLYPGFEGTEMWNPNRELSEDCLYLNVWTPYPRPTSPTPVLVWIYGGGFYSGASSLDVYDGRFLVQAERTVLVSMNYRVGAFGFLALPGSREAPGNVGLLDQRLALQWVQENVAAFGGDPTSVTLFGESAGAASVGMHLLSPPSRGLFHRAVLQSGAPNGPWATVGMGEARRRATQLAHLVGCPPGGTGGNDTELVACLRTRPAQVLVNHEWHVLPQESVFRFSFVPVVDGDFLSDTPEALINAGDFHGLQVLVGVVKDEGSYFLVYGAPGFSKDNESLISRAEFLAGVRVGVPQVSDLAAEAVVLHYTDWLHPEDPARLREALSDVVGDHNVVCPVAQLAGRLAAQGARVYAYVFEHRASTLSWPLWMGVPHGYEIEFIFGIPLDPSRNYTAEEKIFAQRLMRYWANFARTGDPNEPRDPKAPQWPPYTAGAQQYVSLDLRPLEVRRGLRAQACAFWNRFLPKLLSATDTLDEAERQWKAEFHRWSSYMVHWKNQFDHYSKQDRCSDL
Sequence of Cholinesterase (P06276 whole entry): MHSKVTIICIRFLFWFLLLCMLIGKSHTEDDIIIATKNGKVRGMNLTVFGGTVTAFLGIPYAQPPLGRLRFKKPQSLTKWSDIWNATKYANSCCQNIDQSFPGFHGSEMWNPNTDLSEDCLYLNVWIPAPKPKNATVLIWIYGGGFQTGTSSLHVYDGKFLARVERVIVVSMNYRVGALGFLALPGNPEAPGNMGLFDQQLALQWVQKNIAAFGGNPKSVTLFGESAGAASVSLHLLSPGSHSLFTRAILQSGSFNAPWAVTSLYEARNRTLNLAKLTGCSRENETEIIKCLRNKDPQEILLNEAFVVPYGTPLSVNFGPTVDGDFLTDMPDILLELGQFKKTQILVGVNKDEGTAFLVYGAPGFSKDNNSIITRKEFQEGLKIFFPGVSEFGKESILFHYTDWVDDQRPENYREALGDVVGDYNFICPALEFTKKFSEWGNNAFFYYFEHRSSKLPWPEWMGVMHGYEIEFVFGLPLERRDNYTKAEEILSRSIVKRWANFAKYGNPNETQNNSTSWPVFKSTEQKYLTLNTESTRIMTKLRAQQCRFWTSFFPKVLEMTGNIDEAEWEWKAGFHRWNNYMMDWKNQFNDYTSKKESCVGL
Sequence of Acetylcholinesterase (Torpedo californica, UniProt P04058) (P04058 whole entry): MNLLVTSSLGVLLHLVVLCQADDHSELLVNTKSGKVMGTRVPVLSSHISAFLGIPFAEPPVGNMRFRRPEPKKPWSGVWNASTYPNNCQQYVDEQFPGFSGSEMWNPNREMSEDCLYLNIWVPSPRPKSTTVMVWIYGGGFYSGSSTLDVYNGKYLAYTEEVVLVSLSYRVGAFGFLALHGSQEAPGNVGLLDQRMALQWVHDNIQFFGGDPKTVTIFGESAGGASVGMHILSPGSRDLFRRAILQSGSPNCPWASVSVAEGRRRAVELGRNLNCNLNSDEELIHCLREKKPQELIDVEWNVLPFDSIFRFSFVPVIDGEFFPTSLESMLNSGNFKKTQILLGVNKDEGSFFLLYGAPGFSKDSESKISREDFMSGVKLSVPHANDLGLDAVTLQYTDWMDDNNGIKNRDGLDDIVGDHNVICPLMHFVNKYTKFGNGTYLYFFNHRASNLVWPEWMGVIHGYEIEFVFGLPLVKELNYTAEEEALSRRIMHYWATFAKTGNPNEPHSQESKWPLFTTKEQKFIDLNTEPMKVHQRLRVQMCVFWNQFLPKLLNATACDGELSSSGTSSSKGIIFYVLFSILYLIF

CC[C@H](C)C1=N[C@H]2CC=C3C[C@H]4C(=O)C[C@]5(C)[C@@H]([C@H](C)N(C)C)[C@H](O)C[C@@]5(C)[C@@H]4CC[C@H]3[C@]2(C)CN1
IC50 (Acetylcholinesterase [1]): 3.83 µM
IC50 (Acetylcholinesterase [2]): 7.35 µM
IC50 (Acetylcholinesterase [3]): 0.447 µM
IC50 (Cholinesterase): > 10 µM

CC[C@H](C)C(=O)N[C@H]1CC=C2C[C@H]3C(=O)C[C@]4(C)[C@@H]([C@H](C)N(C)C)[C@H](O)C[C@@]4(C)[C@@H]3CC[C@H]2[C@]1(C)/C=N/Cc1ccccc1
IC50 (Cholinesterase): > 10 µM

CC[C@H](C)C(=O)N[C@H]1CC[C@H]2C[C@H]3C(=O)C[C@]4(C)[C@@H]([C@H](C)N(C)C)[C@H](O)C[C@@]4(C)[C@@H]3CC[C@H]2[C@]1(C)CN
IC50 (Acetylcholinesterase [4]): 1.34 µM

CC[C@H](C)C(=O)N[C@H]1CC=C2C[C@H]3C(=O)C[C@]4(C)[C@@H]([C@H](C)N(C)C)[C@H](O)C[C@@]4(C)[C@@H]3CC[C@H]2[C@]1(C)CO
IC50 (Cholinesterase): > 10 µM
IC50 (Acetylcholinesterase [4]): 0.105 µM

CN[C@@H](C)[C@H]1[C@H](O)C[C@@]2(C)[C@@H]3CC[C@@H]4C(=CC[C@@H]5N=C(C(C)C)OC[C@]54C)C[C@H]3C(=O)C[C@]12C
IC50 (Acetylcholinesterase [1]): 0.517 µM
IC50 (Acetylcholinesterase [2]): 2.23 µM
IC50 (Acetylcholinesterase [3]): 0.485 µM
IC50 (Acetylcholinesterase [4]): 0.106 µM

CN[C@@H](C)[C@H]1[C@H](O)C[C@@]2(C)[C@@H]3CC[C@@H]4[C@@H](CC[C@H](NC(=O)C(C)C)[C@@]4(C)CO)C[C@H]3C(=O)C[C@]12C
IC50 (Cholinesterase): 1.44 µM
IC50 (Acetylcholinesterase [4]): 0.11 µM

CC(C)C1=N[C@H]2CC[C@]34C[C@]35C(=O)C[C@]3(C)[C@@H]([C@H](C)N(C)C)[C@H](O)C[C@@]3(C)[C@@H]5CC[C@H]4[C@]2(C)CN1
IC50 (Acetylcholinesterase [1]): 3.11 µM
IC50 (Acetylcholinesterase [2]): 3.28 µM
IC50 (Acetylcholinesterase [3]): 0.002 µM
IC50 (Cholinesterase): > 10 µM
IC50 (Acetylcholinesterase [4]): 0.018 µM

CC[C@H](C)C1=N[C@H]2CC[C@]34C[C@]35C(=O)C[C@]3(C)[C@@H]([C@H](C)N(C)C)[C@H](O)C[C@@]3(C)[C@@H]5CC[C@H]4[C@]2(C)CN1
IC50 (Acetylcholinesterase [1]): 4.37 µM
IC50 (Acetylcholinesterase [2]): 6.49 µM
IC50 (Acetylcholinesterase [3]): 0.002 µM
IC50 (Acetylcholinesterase [4]): 0.014 µM

CC[C@H](C)C(=O)N[C@H]1CC=C2C[C@H]3C(=O)C[C@]4(C)[C@@H]([C@H](C)N(C)C)[C@H](O)C[C@@]4(C)[C@@H]3CC[C@H]2[C@]1(C)CN
IC50 (Cholinesterase): > 10 µM

CC(C)[C@H]1N[C@H]2CC=C3C[C@H]4C(=O)C[C@]5(C)[C@@H]([C@H](C)N(C)C)[C@H](O)C[C@@]5(C)[C@@H]4CC[C@H]3[C@]2(C)CO1
IC50 (Cholinesterase): > 10 µM
IC50 (Acetylcholinesterase [4]): 2.38 µM

CCC(CC)C1=N[C@H]2CC=C3C[C@H]4C(=O)C[C@]5(C)[C@@H]([C@H](C)N(C)C)[C@H](O)C[C@@]5(C)[C@@H]4CC[C@H]3[C@]2(C)CO1
IC50 (Cholinesterase): 1.54 µM

C[C@@H]([C@H]1[C@H](O)C[C@@]2(C)[C@@H]3CC[C@@H]4C(=CC[C@@H]5N=C(C(C)(C)C)OC[C@]54C)C[C@H]3C(=O)C[C@]12C)N(C)C
IC50 (Acetylcholinesterase [1]): 0.351 µM
IC50 (Acetylcholinesterase [2]): 1.18 µM
IC50 (Acetylcholinesterase [3]): 0.372 µM
IC50 (Cholinesterase): > 10 µM

CC(C)C(=O)N[C@H]1CC[C@H]2C[C@H]3C(=O)C[C@]4(C)[C@@H]([C@H](C)N(C)C)[C@H](O)C[C@@]4(C)[C@@H]3CC[C@H]2[C@]1(C)CN
IC50 (Acetylcholinesterase [4]): 0.291 µM

CC(C)C(=O)N[C@H]1CCC23CC24C(=O)C[C@]2(C)[C@@H]([C@H](C)N(C)C)[C@H](O)C[C@@]2(C)[C@@H]4CC[C@H]3[C@]1(C)CO (some centres not stated)
IC50 (Cholinesterase): > 10 µM
IC50 (Acetylcholinesterase [4]): > 10 µM

CC(C)[C@H]1N[C@H]2CC[C@]34C[C@]35C(=O)C[C@]3(C)[C@@H]([C@H](C)N(C)C)C(O)C[C@@]3(C)[C@@H]5CC[C@H]4[C@]2(C)CO1 (some centres not stated)
IC50 (Cholinesterase): > 10 µM
IC50 (Acetylcholinesterase [4]): 0.82 µM

CC1=N[C@H]2CC=C3C[C@H]4C(=O)C[C@]5(C)[C@@H]([C@H](C)N(C)C)[C@H](O)C[C@@]5(C)[C@@H]4CC[C@H]3[C@]2(C)CO1
IC50 (Acetylcholinesterase [1]): 5.24 µM
IC50 (Acetylcholinesterase [2]): 6.12 µM
IC50 (Acetylcholinesterase [3]): 2.79 µM
IC50 (Cholinesterase): > 10 µM

CC(C)C1=N[C@H]2CC[C@H]3C=C4C(=O)C[C@]5(C)[C@@H]([C@H](C)N(C)C)[C@H](O)C[C@@]5(C)[C@@H]4CC[C@H]3[C@]2(C)CO1
IC50 (Cholinesterase): 1.45 µM
IC50 (Acetylcholinesterase [4]): 0.11 µM

CCC(CC)C(=O)N[C@H]1CC=C2C[C@H]3C(=O)C[C@]4(C)[C@@H]([C@H](C)N(C)C)[C@H](O)C[C@@]4(C)[C@@H]3CC[C@H]2[C@]1(C)CO
IC50 (Cholinesterase): > 10 µM

CC[C@H](C)C1=N[C@H]2CC=C3C[C@H]4C(=O)C[C@]5(C)[C@@H]([C@H](C)N(C)C)[C@H](O)C[C@@]5(C)[C@@H]4CC[C@H]3[C@]2(C)CO1
IC50 (Acetylcholinesterase [1]): 0.265 µM
IC50 (Acetylcholinesterase [2]): 1.36 µM
IC50 (Acetylcholinesterase [3]): 0.237 µM
IC50 (Cholinesterase): > 10 µM

CC(C)C1=N[C@H]2CC=C3CC4C(=O)C[C@]5(C)[C@@H]([C@H](C)N(C)C)[C@H](O)C[C@@]5(C)[C@@H]4CC[C@H]3[C@]2(C)CO1 (some centres not stated)
IC50 (Acetylcholinesterase [1]): 0.299 µM
IC50 (Acetylcholinesterase [2]): 0.756 µM
IC50 (Acetylcholinesterase [3]): 0.385 µM
IC50 (Cholinesterase): > 1 µM
IC50 (Acetylcholinesterase [4]): 0.031 µM

C[C@@H]([C@H]1[C@H](O)C[C@@]2(C)[C@@H]3CC[C@@H]4C(=CC[C@@H]5N=C(c6ccccc6)OC[C@]54C)C[C@H]3C(=O)C[C@]12C)N(C)C
IC50 (Cholinesterase): > 10 µM

C[C@@H]([C@H]1[C@H](O)C[C@@]2(C)[C@@H]3CC[C@@H]4C(=CC[C@@H]5N=C(Cc6ccccc6)OC[C@]54C)C[C@H]3C(=O)C[C@]12C)N(C)C
IC50 (Cholinesterase): 0.38 µM

CC(C)C1=N[C@H]2CC=C3C[C@H]4C(=O)C[C@]5(C)[C@@H]([C@H](C)N(C)C)[C@H](OC(=O)C(C)(C)C)C[C@@]5(C)[C@@H]4CC[C@H]3[C@]2(C)CO1
IC50 (Acetylcholinesterase [1]): 0.839 µM
IC50 (Acetylcholinesterase [2]): 1.39 µM
IC50 (Acetylcholinesterase [3]): 0.724 µM
IC50 (Acetylcholinesterase [4]): 0.11 µM

CC(=O)O[C@@H]1C[C@@]2(C)[C@@H]3CC[C@@H]4C(=CC[C@@H]5N=C(C(C)C)OC[C@]54C)C[C@H]3C(=O)C[C@]2(C)[C@H]1[C@H](C)N(C)C
IC50 (Acetylcholinesterase [4]): 0.38 µM

CCC(C)C1=N[C@H]2CC=C3C[C@H]4C(=O)C[C@]5(C)[C@@H]([C@H](C)N(C)C)[C@H](O)C[C@@]5(C)[C@@H]4CC[C@H]3[C@]2(C)CO1 (some centres not stated)
IC50 (Cholinesterase): > 10 µM

CCC1=N[C@H]2CC=C3C[C@H]4C(=O)C[C@]5(C)[C@@H]([C@H](C)N(C)C)[C@H](O)C[C@@]5(C)[C@@H]4CC[C@H]3[C@]2(C)CO1
IC50 (Cholinesterase): > 10 µM

CC(C)C(=O)N[C@H]1CC=C2C[C@H]3C(=O)C[C@]4(C)[C@@H]([C@H](C)N(C)C)[C@H](O)C[C@@]4(C)[C@@H]3CC[C@H]2[C@]1(C)CO (racemic)
IC50 (Cholinesterase): 1.93 µM
